Experimental data: patent US10889572B2, “Reactive oxygen species scavengers and use for treating diseases” (XW LABORATORIES INC., priority 2017, dated 2021)
Where a name gives a salt, the structure may show the parent alone.

Test system: HT-1080 (fibrosarcoma) cells
Experiment: Primary screening by ferroptosis assay (Erastin-induced, cell viability, CellTiter-Glo)
Type: cell-based
Settings: HT-1080 cells, 30 hours, % remaining activity, read-out: EC50, Inhibition for Ferroptosis in HT-1080 Cell
Method: Cell Lines and Media: HT-1080 (fibrosarcoma) cells were obtained from American Type Culture Collection. Cells were grown in EMEM media, 10% Heat-Inactivated FBS, and penicillin-streptomycin mix (Invitrogen). Cells were maintained at 37° C. and 5% CO2 in a tissue culture incubator.
Cell Viability Assay: Seed 10,000 cell/well of HT-1080 cells with 195 μL growth media in black and clear bottom 96-well plates (Cat #Corning 3904) and allow cells to adhere overnight. The next day, dilute test compound by 2-fold dilution into 12 points with medium containing 400 μM Erastin. Transfer 5 μL of compounds solution into growth medium in triplicated wells. 30 hours later, add Cell Titer-Glo® Luminescent cell viability assay reagent (Cat #, Promega G8081) to measure HT-1080 cell viability according to the manufacture protocol. Briefly, aspirate 100 μL medium, and add 50 μL CellTiter-Glo® Luminescent reagent to each well and incubated for 30 minutes at room temperature to stabilize the Luminescent signal. Seal the plates and centrifuged for 1 minute at 1,000 rpm to remove bubbles. Shake the plates for 1 minute on an orbital shaker. Read the plate to detect Luminescent signal with EnSpire Multimode Plate Reader (PerkinElmer). The remaining activity % is used to evaluate Erastin induced ferroptosis in HT-1080 cells and expressed as the following formula: % Remaining Activity−100×[(Sample−Backgroundavg)/(Vehicle−Background avg)]
Sample: Readout from the test compound
Vehicle: Readout from the vehicle sample
Background: Readout from the Erastin only treatment
Dose response curve is graphed by using the non-linear regression analysis (formula equation 201) in XLFit (Excel add-in software) for the average % remaining activity from triplicates, and the EC50 values is then calculated. In this anti-ferroptosis assay, ferrostatin-1, and XJB-5-131 are included as reference. The acceptance criteria were set based on historical result, mean±2.58*SD in logarithmic scale, meanwhile Z′>0.5.

SMILES | EC50 [nM]
CC(C)C[C@@H](/C=C/[C@H](Cc1ccccc1)C(=O)N1CCC[C@H]1C(=O)N[C@H](C(=O)N[C@@H](CCCNC(=O)OCc1ccccc1)C(=O)NC1CC(C)(C)N([O])C(C)(C)C1)C(C)C)NC(=O)OC1CC(C)(C)N([O])C(C)(C)C1 [Example VIII, 1-Oxyl-2,2,6,6-tetramethylpiperidin-4-yl N-[(4S,5E,7S)-7-benzyl-8-[(2S)—2-{[(1S)—1-{[(1S)—4-{[(benzyloxy)carbonyl]amino}-1-[(1-oxyl-2,2,6,6-tetramethylpiperidin-4-yl)carbamoyl]butyl]carbamoyl}-2-methylpropyl]carbamoyl}pyrrolidin-1-yl]-2-methyl-8-oxooct-5-en-4-yl]carbamate] | 266
CC(C)C[C@@H](/C=C/[C@H](Cc1ccccc1)C(=O)N1CCC[C@H]1C(=O)N[C@@H](CCCNC(=O)OCc1ccccc1)C(=O)OC1CC(C)(C)N(O)C(C)(C)C1)NC(=O)OC(C)(C)C [Example XXXXI, (S)-1-hydroxy-2,2,6,6-tetramethylpiperidin-4-yl 2-((S)-1-((2S,5S,E)-2-benzyl-5-((tert-butoxycarbonyl)amino)-7-methyloct-3-enoyl)pyrrolidine-2-carboxamido)-5-(((benzyloxy)carbonyl)amino)pentanoate] | 139
CC(C)C[C@@H](/C=C/[C@H](Cc1ccccc1)C(=O)N1CCC[C@H]1C(=O)N[C@@H](CCCNC(=O)OC(C)(C)C)C(=O)NC1CC(C)(C)N([O])C(C)(C)C1)NC(=O)OC(C)(C)C [Example XX, tert-Butyl N-(4-{[(2S)-1-[(2R,3E,5S)-2-benzyl-5-{[(tert-butoxy)carbonyl]amino}-7-methyloct-3-enoyl]pyrrolidin-2-yl]formamido}-4-[(1-oxyl-2,2,6,6-tetramethylpiperidin-4-yl)carbamoyl]butyl)carbamate] | 532
CC(C)C[C@@H](/C=C/[C@H](Cc1ccccc1)C(=O)N1CCC[C@H]1C(=O)N[C@@H](CCCCNC(=O)OCc1ccccc1)C(=O)NC1CC(C)(C)N(O)C(C)(C)C1)NC(=O)OC(C)(C)C [Example XXVII, Benzyl N-[(5S)—5-{[(2S)-1-[(2S,3E,5S)-2-benzyl-5-{[(tertbutoxy)carbonyl]amino}-7-methyloct-3-enoyl]pyrrolidin-2-yl]formamido}-5-[(1-hydroxy-2,2,6,6-tetramethylpipe-ridin-4-yl)carbamoyl]pentyl]carbamate] | 141

Same assay, conditions: Homo sapiens, HT-1080, 30 h, HT-1080 cells, % remaining activity, read-out: EC50, Inhibition for Ferroptosis in HT-1080 Cell

SMILES | EC50 [nM]
CC(C)C[C@@H](/C=C/C(Cc1ccccc1)C(=O)N1CCC[C@H]1C(=O)N[C@H](C(=O)N[C@@H](CCCNC(=O)OCc1ccccc1)C(=O)NC1CC(C)(C)N(O)C(C)(C)C1)C1CC1)NC(=O)OC(C)(C)C (stereo in doubt) [Example XII, Benzyl N-[(4S)-4-[(2S)—2-{[(2S)-1-[(2R,3E,5S)-2-benzyl-5-{[(tert-butoxy)carbonyl]amino}-7-methyloct-3-enoyl]pyrrolidin-2-yl]formamido}-2-cyclopropylacetamido]-4-[(1-hydroxy-2,2,6,6-tetramethylpiperidin-4-yl)carbamoyl]butyl]carbamate] | 481
CC(C)C[C@@H](/C=C/[C@H](Cc1ccccc1)C(=O)N1CCC[C@H]1C(=O)N[C@@H](Cc1ccc(O)cc1)C(=O)NC1CC(C)(C)N(O)C(C)(C)C1)NC(=O)OC(C)(C)C [Example XVI, tert-Butyl N-[(4S,5E,7S)-7-benzyl-8-[(2S)—2-{[(1S)-1-[(1-hydroxy-2,2,6,6-tetramethylpiperidin-4-yl)carbamoyl]-2-(4-hydroxyphenyl)ethyl]carbamoyl}pyrrolidin-1-yl]-2-methyl-8-oxooct-5-en-4-yl]carbamate] | 536
CC(C)C[C@@H](/C=C/[C@H](Cc1ccccc1)C(=O)N1CCC[C@H]1C(=O)N1CCC[C@H]1C(=O)N[C@@H](CCCNC(=O)OCc1ccccc1)C(=O)NC1CC(C)(C)N(O)C(C)(C)C1)NC(=O)OC(C)(C)C [Example XI, Benzyl N-[(4S)-4-1-{[(2S)-1-[(2S)-1-[(2R,3E,5S)-2-benzyl-5-{[(tert-butoxy)carbonyl]amino}-7-methyloct-3-enoyl]pyrrolidine-2-carbonyl]pyrrolidin-2-yl]formamido}-4-[(1-hydroxy-2,2,6,6-tetramethylpiperidin-4-yl)carbamoyl]butyl]carbamate] | 526
CC(C)C[C@@H](/C=C/[C@H](Cc1ccccc1)C(=O)N1CCC[C@H]1C(=O)N[C@@H](CCCCNC(=O)OC1CC(C)(C)N(O)C(C)(C)C1)C(=O)NC(C)(C)C)NC(=O)OC(C)(C)C [Example XXXVI, tert-Butyl N-[(4S,5E,7S)-7-benzyl-8-[(2S)—2-{[(1S)-1-(tert-butylcarbamoyl)-5-({[(1-oxyl-2,2,6,6-tetramethylpiperidin-4-yl)oxy]carbonyl}amino)pentyl]-carbamoyl}pyrrolidin-1-yl]-2-methyl-8-oxooct-5-en-4-yl]carbamate] | 142
CCN(CC)C(=O)[C@H](CCCNC(=O)OC1CC(C)(C)N(O)C(C)(C)C1)NC(=O)[C@@H]1CCCN1C(=O)[C@H](/C=C/[C@H](CC(C)C)NC(=O)OC(C)(C)C)Cc1ccccc1 [Example XXXV, tert-Butyl N-[(4S,5E,7S)-7-benzyl-8-[(2S)—2-{[(1S)-1-(diethylcarbamoyl)-4-({[(1-oxyl-2,2,6,6-tetramethylpiperidin-4-yl)oxy]carbonyl}amino)-butyl]carbamoyl}pyrrolidin-1-yl]-2-methyl-8-oxooct-5-en-4-yl]carbamate] | 192
CC(C)C[C@@H](/C=C/[C@H](Cc1ccccc1)C(=O)N1CCC[C@H]1C(=O)N[C@@H](CCCCNC(=O)OC1CC(C)(C)N(O)C(C)(C)C1)C(=O)NC(C)C)NC(=O)OC(C)(C)C [Example XXXVII, tert-Butyl N-[(4S,5E,7S)-7-benzyl-8-[(2S)—2-{[(1S)-5-({[(1-oxyl-2,2,6,6-tetramethylpiperidin-4-yl)oxy]carbonyl}amino)-1-[(propan-2-yl)carbamoyl]pentyl]carbamoyl}pyrrolidin-1-yl]-2-methyl-8-oxooct-5-en-4-yl]carbamate] | 201
CC(C)C[C@@H](/C=C/[C@H](Cc1ccccc1)C(=O)N1CCC[C@H]1C(=O)N[C@@H](CCCNC(=O)OC1CC(C)(C)N(O)C(C)(C)C1)C(=O)NC1CC(C)(C)N(O)C(C)(C)C1)NC(=O)OC(C)(C)C [XXXXIII, 1-Hydroxy-2,2,6,6-tetramethylpiperidin-4-yl N-[(4S)—4-{[(2S)-1-[(2S,3E,5S)-2-benzyl-5-{[(tert-butoxy)carbonyl]amino}-7-methyloct-3-enoyl]pyrrolidin-2-yl]formamido}-4-[(1-hydroxy-2,2,6,6-tetramethylpiperidin-4-yl)carbamoyl]butyl]carbamate] | 123
CC(C)C[C@@H](/C=C/[C@H](Cc1ccccc1)C(=O)N1CCC[C@@H]1C(=O)NC1CC(C)(C)N(O)C(C)(C)C1)NC(=O)OC(C)(C)C [Example VI, tert-Butyl N-[(4S,5E,7S)-7-benzyl-8-[(2R)-2-[(1-hydroxy-2,2,6,6-tetramethylpiperidin-4-yl)carbamoyl]pyrrolidin-1-yl]-2-methyl-8-oxooct-5-en-4-yl]carbamate] | 1020
CC(C)C[C@@H](/C=C/[C@H](Cc1ccccc1)C(=O)N1CCC[C@H]1C(=O)N[C@H](CCCCNC(=O)OC1CC(C)(C)N(O)C(C)(C)C1)C(=O)O)NC(=O)OC(C)(C)C [XXXIV, (2R)—2-{[(2S)-1-[(2S,3E,5S)-2-benzyl-5-{[(tert-butoxy)carbonyl]amino}-7-methyloct-3-enoyl]pyrrolidin-2-yl]formamido}-6-({[(1-oxyl-2,2,6,6-tetramethylpiperidin-4-yl)oxy]carbonyl}amino)hexanoic acid] | > 4000

Same assay, conditions: Homo sapiens, HT-1080 cells, 30 hours, % remaining activity, read-out: EC50, Inhibition for Ferroptosis in HT-1080 Cell

SMILES | EC50 [nM]
CC(C)C[C@H](N)/C=C/[C@H](Cc1ccccc1)C(=O)N1CCC[C@H]1C(=O)N[C@H](C(=O)N[C@@H](CCCNC(=O)OCc1ccccc1)C(=O)NC1CC(C)(C)N(O)C(C)(C)C1)C(C)C [Example XV, Benzyl N-[(4S)-4-[(2S)—2-{[(2S)-1-[(2S,3E,5S)-5-amino-2-benzyl-7-methyloct-3-enoyl]pyrrolidin-2-yl]formamido}-3-methylbutanamido]-4-[(1-hydroxy-2,2,6,6-tetramethylpiperidin-4-yl)carbamoyl]butyl]carbamate trifluoroacetic acid salt] | 2230
CC(C)C[C@@H](/C=C/[C@H](Cc1ccccc1)C(=O)N1CCC[C@@H]1C(=O)N[C@@H](CCCNC(=O)OC(C)(C)C)C(=O)NC1CC(C)(C)N(O)C(C)(C)C1)NC(=O)OC(C)(C)C [Example XXI, tert-Butyl N-[(4S,5E,7S)-7-benzyl-8-[(2R)—2-{[(1S)—4-{[(tert-butoxy)carbonyl]amino}-1-[(1-hydroxy-2,2,6,6-tetramethylpiperidin-4-yl)carbamoyl]butyl]carbamoyl}pyrrolidin-1-yl]-2-methyl-8-oxooct-5-en-4-yl]carbamate] | 257
